Measured values from patent publication US20210405025A1, “IDENTIFYING COMPOUNDS FOR TREATING CANCER AND USE THEREOF” (THE UAB RESEARCH FOUNDATION, priority 2018, published 2021).
Structures can show the parent of a compound that is named as a salt.

Tested on: relapsed AML cells
Assay: Drug sensitivity assay, 1,536-well, 3-day culture with individual approved drugs at 10 μM, viability by alamarBlue
Assay type: cell-based, human
Settings: not given
Experimental: Drug sensitivity assays were performed using a 1,536-well platform where all cells and reagents were deposited in wells using an acoustic liquid handling unit that is highly accurate for dispensing of nanoliter volumes of liquid. […] After dispensing the cells into the wells, an independent drug at a known concentration is added to each well and incubated with the cells. After three days, the percentage of live cells in each well is determined to assess the killing efficiency of each compound. […] Cell viability assays are known to those of skill in the art. See, for example, Pemovska et al., Individualized systems medicine strategy to tailor treatments for patients with chemorefractory acute myeloid leukemia. Cancer Discovery 3:1416-1429, 2013; Pabst et al., Identification of small molecules that support human leukemia stem cell activity ex vivo. Nature Methods 11:436-442, 2014; Baccelli et al., A novel approach for the identification of efficient combination therapies in primary human acute myeloid leukemia specimens. Blood Cancer Journal 7:e529, 2017. In studies described herein, the 1,536-well format was utilized, which allowed for use of four times fewer cells as well as less drug and media components due to the small assay volume of 5 microliters. […] Other compounds like CellTiter-Glo (Promega, Madison, Wis.) are equally appropriate reagents for determining cell viability.
Conditions for the drug screening assays were as described in Pabst et al., Identification of small molecules that support human leukemia stem cell activity ex vivo, Nature Methods 11:436-442, 2014). Using this protocol, cells were cultured in Iscove's Modified Dulbecco's Medium (IMDM), 15% BIT (bovine serum albumin, insulin, transferrin; Stem Cell Technologies 09500 (Vancouver, Calif.)), 100 ng/ml SCF (Shenandoah 100-04 (Warwick, Pa.)), 50 ng/ml FLT3L (Shenandoah 100-21), 20 ng/ml IL-3 (Shenandoah 100-80), 20 ng/ml G-CSF (Shenandoah 100-72), 10^-4 M β-mercaptoethanol, gentamicin (50 μg/ml) and ciprofloxacin (10 μg/ml).
Cells were removed from liquid nitrogen and placed in a 37° C. bath, just until thawed. For 1,536-well screens utilizing 6,000 wells about 100 million cells were thawed. The volume was doubled with pre-warmed culture media and placed on ice for about one to two minutes. The cells were brought to a final volume of about 8 to 10 mL before spinning down at 1,100 rpm for 5 min at 10° C. The pelleted cells were resuspended in 10 mL of culture media and plated in a tissue-culture treated T75 flask at a density of 1 to 2 million cells/ml. The cells were cultured overnight prior to fluorescence-activated cell sorting of viable cells on the following day.
After cells were cultured overnight, a cell scraper was used to remove any cells that adhered to the plastic. The cells were gently pipetted up and down to break up aggregates. Then, the entire volume was transferred to a 50 mL conical tube through a 70 micron cell strainer to remove cell clumps. The T75 flask was rinsed and scraped with about 10 mL HBSS and transferred to the same 50 mL conical tube through the strainer. The harvested cells were spun down at 1,100 rpm for 5 min at 10° C. The cells were then resuspendd in about 300-500 microliters FACS buffer (HBSS+2% FBS+1× propidium iodide) and transferred to a FACS tube. The tube was placed on ice and viable cells that are forward- and side-scatter gated on viable myeloid blasts were sorted by FACS (the scatter gate should exclude small lymphocytes, large myeloid cells, and debris). After sorting the required number of viable cells, the cells were spun down at 1,100 rpm for 5 min at 10° C. and subsequently resuspended at 4,000-4,500 cells per 5 microliter volume of complete culture media with growth factors and penicillin/streptomycin.

For C[CH2][Hg][S]c1ccccc1C(=O)[O-].[Na+] [THIMEROSAL], the “#Cases >70% cell death” value was 18.

Same assay, conditions: number of relapsed AML cases out of 18 tested with >70% cell death; 10 μM, 3-day culture

First: Cc1cc(CC(C)CC(C)(C)C)n(O)c(=O)c1.NCCO (stereo not drawn) [PIROCTONE OLAMINE]
Second: O=C(CCCCCCC(=O)Nc1cccnc1)NO [PYROXAMIDE]
The “#Cases >70% cell death” value of the first is lower: 13 for the first, 15 for the second.

Compared with COc1cc(/C=C/C(=O)CC(=O)/C=C/c2ccc(O)c(OC)c2)ccc1O [CURCUMIN], Cc1ncc2c(c1O)COC2c1ccc(Cl)cc1 (stereo not drawn) [CICLETANINE] is higher in “#Cases >70% cell death” value: 1 for the first, 4 for the second.

Going from CC(=O)[C@@]1(O)CC[C@H]2[C@@H]3C[C@H](C)C4=CC(=O)C=C[C@]4(C)[C@@]3(F)[C@@H](O)C[C@@]21C [FLUOROMETHOLONE] to Nc1ncnc2c1ncn2CCOCP(=O)(O)O [ADEFOVIR], the “#Cases >70% cell death” value rises from 2 to 18.

Clc1ccccc1CN1CCc2sccc2C1 [TICLOPIDINE] and NNC(=O)c1ccncc1 [ISONIAZID] are the same in “#Cases >70% cell death” value: 1 for the first, 1 for the second.

First: CCCCCCCCCCC[C@@H](C[C@@H]1OC(=O)[C@H]1CCCCCC)OC(=O)[C@H](CC(C)C)NC=O [ORLISTAT]
Second: O=c1cc[nH]c(=O)[nH]1 [URACIL]
The “#Cases >70% cell death” value of the first is higher: 9 for the first, 7 for the second.

First: C[C@@H](Oc1cc(-n2cnc3ccc(CN4CCN(C)CC4)cc32)sc1C(N)=O)c1ccccc1C(F)(F)F [GSK 461364]
Second: C#C[C@]1(O)CC[C@H]2[C@@H]3CCc4cc(O)ccc4[C@H]3CC[C@@]21C [ETHINYL ESTRADIOL]
The “#Cases >70% cell death” value of the first is higher: 9 for the first, 1 for the second.

Compared with Cc1c(Nc2ncccc2C(=O)O)cccc1C(F)(F)F [FLUXININ], CC1=C(C)C(=O)C(C(CCCCCC(=O)O)c2ccccc2)=C(C)C1=O (stereo not drawn) [SERATRODAST] is lower in “#Cases >70% cell death” value: 3 for the first, 1 for the second.

First: OCCOCCN1CCN(C2=Nc3ccccc3Sc3ccccc32)CC1 [QUETIAPINE]
Second: C=CC(N)CCC(=O)O (stereo not drawn) [VIGABATRIN]
The “#Cases >70% cell death” value of the first is lower: 1 for the first, 13 for the second.

Going from Nc1nc(NC2CC2)c2ncn([C@H]3C=C[C@@H](CO)C3)c2n1 [ABACAVIR SULFATE] to COc1c(C)c2c(c(O)c1C/C=C(\C)CCC(=O)O)C(=O)OC2 [MYCOPHENOLIC ACID], the “#Cases >70% cell death” value rises from 1 to 5.

First: COc1cc(C(=O)OCCCN2CCCN(CCCOC(=O)c3cc(OC)c(OC)c(OC)c3)CC2)cc(OC)c1OC [DILAZEP DIHYDROCHLORIDE]
Second: Cc1ncc(-c2ccnc(Nc3ccc(S(C)(=O)=O)cc3)n2)n1C(C)C [AZD-5438]
The “#Cases >70% cell death” value of the first is lower: 2 for the first, 17 for the second.

Going from CCCOc1ccc2nc(NC(=O)OC)[nH]c2c1 [OXIBENDAZOLE] to CC(=O)[C@]1(O)Cc2c(O)c3c(c(O)c2[C@@H](O[C@H]2C[C@H](N)[C@H](O)[C@H](C)O2)C1)C(=O)c1ccccc1C3=O [IDARUBICIN], the “#Cases >70% cell death” value rises from 5 to 18.

CCCOc1ccc(C(=O)OCCN(CC)CC)cc1N [PROPARACAINE] and CCCCN(CCCC)CCCOC(=O)c1ccc(N)cc1 [BUTACAINE] are the same in “#Cases >70% cell death” value: 1 for the first, 1 for the second.

Compared with CC(C)C[C@H](NC(=O)[C@H](Cc1ccccc1)NC(=O)c1cnccn1)B(O)O [BORTEZOMIB], O=C1CC2(CCCC2)CC(=O)N1CCNCC1COc2ccccc2O1 (stereo not drawn) [BINOSPIRONE MESYLATE] is lower in “#Cases >70% cell death” value: 18 for the first, 1 for the second.

First: C=CC(=O)Nc1cc(Nc2nccc(-c3cn(C)c4ccccc34)n2)c(OC)cc1N(C)CCN(C)C [OSIMERTINIB (tagrisso), OSIMERTINIB]
Second: c1ccc(CC2=NCCN2)cc1 [TOLAZOLINE HYDROCHLORIDE]
The “#Cases >70% cell death” value of the first is lower: 1 for the first, 4 for the second.

Going from CC1(C)CC(=O)c2c(C(F)(F)F)nn(-c3ccc(C(N)=O)c(N[C@H]4CC[C@H](O)CC4)c3)c2C1 [PF-04928473] to CCCCCCCCCCCCCCCC[N+](C)(C)C.[Br-] [CETRIMONIUM BROMIDE], the “#Cases >70% cell death” value falls from 18 to 17.

First: Fc1ccc(C(c2ccc(F)cc2)N2CCN(C/C=C/c3ccccc3)CC2)cc1 [FLUNARIZINE]
Second: C[C@H](CCC(=O)O)[C@H]1CC[C@H]2[C@@H]3[C@@H](O)C[C@@H]4C[C@H](O)CC[C@]4(C)[C@H]3CC[C@]12C [URSODIOL]
The “#Cases >70% cell death” value of the first is higher: 3 for the first, 2 for the second.

Going from CCCC(=O)O[C@]1(C(=O)COC(C)=O)CC[C@H]2[C@@H]3C[C@H](F)C4=CC(=O)C=C[C@]4(C)[C@@]3(F)[C@@H](O)C[C@@]21C [DIFLUPREDNATE] to CNC(=O)c1cc(Oc2ccc(NC(=O)Nc3ccc(Cl)c(C(F)(F)F)c3)cc2)ccn1 [SORAFENIB], the “#Cases >70% cell death” value rises from 1 to 9.

Compared with COCCn1c2c([n+](Cc3cnccn3)c1C)C(=O)c1ccccc1C2=O [YM-155], AZD-1152 is lower in “#Cases >70% cell death” value: 18 for the first, 5 for the second.

First: CCC1=C[C@@H]2CN(CCc3c([nH]c4ccccc34)[C@@](C(=O)OC)(c3cc4c(cc3OC)N(C)[C@H]3[C@@](O)(C(=O)OC)[C@H](OC(C)=O)[C@]5(CC)C=CCN6CC[C@]43[C@@H]65)C2)C1 [ANHYDROVINBLASTINE]
Second: CC1=C(/C=C/C(C)=C/C=C/C(C)=C/C(=O)Nc2ccc(O)cc2)C(C)(C)CCC1 [FENRETINIDE]
The “#Cases >70% cell death” value of the first is lower: 5 for the first, 9 for the second.

Going from CC[C@@H]1/C=C(\C)C[C@H](C)C[C@H](OC)[C@H]2O[C@@](O)(C(=O)C(=O)N3CCCC[C@H]3C(=O)O[C@H](/C(C)=C/[C@@H]3CC[C@H](Cl)[C@H](OC)C3)[C@H](C)[C@@H](O)CC1=O)[C@H](C)C[C@@H]2OC [PIMECROLIMUS] to COC(=O)C1=C(C)NC(C)=C(C(=O)OCCN2CCN(C(c3ccccc3)c3ccccc3)CC2)C1c1cccc([N+](=O)[O-])c1 (stereo not drawn) [MANIDIPINE], the “#Cases >70% cell death” value rises from 2 to 5.

Going from Clc1ccc(CCC(Cn2ccnc2)Sc2c(Cl)cccc2Cl)cc1 (stereo not drawn) [BUTOCONAZOLE] to COc1cccc2c1C(=O)c1c(O)c3c(c(O)c1C2=O)C[C@@](O)(C(=O)CO)C[C@@H]3O[C@H]1C[C@H](N)[C@@H](O)[C@H](C)O1 [EPIRUBICIN], the “#Cases >70% cell death” value rises from 1 to 18.

First: CCc1nn(CCCN2CCN(c3cccc(Cl)c3)CC2)c(=O)n1CCOc1ccccc1 [NEFAZODONE]
Second: CN(C)C(=S)SSC(=S)N(C)C [THIRAM]
The “#Cases >70% cell death” value of the first is lower: 1 for the first, 4 for the second.

Going from C[C@]12CC[C@@H]3c4ccc(OS(=O)(=O)O)cc4CC[C@H]3[C@@H]1CCC2=O [ESTROPIPATE] to Clc1ccc(CSC(Cn2ccnc2)c2ccc(Cl)cc2Cl)cc1 (stereo not drawn) [SULCONAZOLE NITRATE], the “#Cases >70% cell death” value rises from 1 to 5.

Going from CC(=O)O[C@@]12CO[C@@H]1C[C@H](O)[C@@]1(C)C(=O)[C@H](O)C3=C(C)[C@@H](OC(=O)[C@H](O)[C@@H](NC(=O)OC(C)(C)C)c4ccccc4)C[C@@](O)([C@@H](OC(=O)c4ccccc4)[C@H]21)C3(C)C [DOCETAXEL] to CC[C@@H](C(=O)[C@@H](C)[C@@H](O)[C@H](C)CCc1ccc(C)c(O)c1C(=O)O)[C@H]1O[C@](CC)([C@H]2CC[C@](O)(CC)[C@H](C)O2)C[C@@H]1C [LASALOCID SODIUM], the “#Cases >70% cell death” value rises from 5 to 10.

Going from CC(C)(C)c1cnc(CSc2cnc(NC(=O)C3CCNCC3)s2)o1 [BMS-387032] to CN1CCC(CNc2ccc3ncc(-c4cccc(OC(F)(F)F)c4)n3n2)CC1 [SGI-1776], the “#Cases >70% cell death” value falls from 18 to 14.

ARSENIC TRIOXIDE DIETHANOLAMINE SALT and Nc1nc2nc[nH]c2c(=S)[nH]1 [TIOGUANINE (6-thioguanine), TIOGUANINE] are the same in “#Cases >70% cell death” value: 16 for the first, 16 for the second.

COc1cc2c(c(OC)c1OC)-c1ccc(OC)c(=O)cc1[C@@H](NC(C)=O)CC2 [COLCHICINE] was tested, and the “#Cases >70% cell death” value was 13.
